Experimental data from PMC6379498, “Radiosynthesis and in vivo evaluation of ^11C-labeled BMS-193885 and its desmethyl analog as PET tracers for neuropeptide Y1 receptors” (EJNMMI Radiopharmacy and Chemistry, 2019).

Key:
[1] = Biodistribution of radioactivity in mice after tracer injection; assay type: in vivo; conditions: mean±S.D. n=4
Protocol: [^11C]1 (13 MBq/0.12 nmol) or [^11C]2 (15 MBq/0.36 nmol) was intravenously injected into mice (aged 7–8 weeks, weighing 33–38 g, n = 4). Mice were euthanized by cervical dislocation at 5, 15, 30, or 60 min post-injection.
(§1) Blood samples were collected by heart puncture. Tissues were dissected and weighed. The radioactivity in samples was measured with an automatic gamma counter (Wizard 3′′ 1480, PerkinElmer, Waltham, MA, USA). The tissue uptake of radioactivity was expressed as the percentage of injected dose detected per gram of sample (%ID/g, tissue radioactivity/g tissue/injected radioactivity × 100).

[2] = test system: P-gp and BCRP; test: Effect of pretreatment with elacridar on tissue distribution of radioactivity; assay type: in vivo, mice; conditions: 30 min post-injection, elacridar 5 mg/kg 20-30 min before tracer, vs control
Protocol: The effects of pretreatment with 1 (BMS-193885) or the ABC transporter-inhibitor elacridar (inhibiting drug efflux transporters, mainly P-gp and BCRP) on tissue distributions of radioactivity were investigated. [^11C]1 (7.1–14 MBq/0.079–0.23 nmol) or [^11C]2 (6.0 MBq/0.16 nmol) was intravenously injected into mice (aged 7–8 weeks, weighing 32–36 g, n = 4–8) 20–30 min after the administration of the solution of 1 (10 mg/kg body weight [b.w.]/0.1 mL water containing 20% Tween 80), elacridar (5 mg/kg b.w./0.1 mL water), or a control fluid (0.1 mL water). Mice were euthanized by cervical dislocation at 30 min post-injection.
as §1

[3] = molecular target: T1, NPY Y1-Rs (Mus musculus, UniProt Q04573); test: Effect of pretreatment with 1 (BMS-193885) on tissue distribution of radioactivity; assay type: in vivo, mice; conditions: 30 min post-injection, 1 10 mg/kg 20-30 min before tracer, vs control
T1 construct: in the lung, spleen, and kidney, which are rich in NPY Y1-Rs; from tissue; host or cells: organs of living mice (blood, heart, lung, spleen, kidney, liver, pancreas, muscle, brain etc.)
T1 sequence (Q04573 1-382): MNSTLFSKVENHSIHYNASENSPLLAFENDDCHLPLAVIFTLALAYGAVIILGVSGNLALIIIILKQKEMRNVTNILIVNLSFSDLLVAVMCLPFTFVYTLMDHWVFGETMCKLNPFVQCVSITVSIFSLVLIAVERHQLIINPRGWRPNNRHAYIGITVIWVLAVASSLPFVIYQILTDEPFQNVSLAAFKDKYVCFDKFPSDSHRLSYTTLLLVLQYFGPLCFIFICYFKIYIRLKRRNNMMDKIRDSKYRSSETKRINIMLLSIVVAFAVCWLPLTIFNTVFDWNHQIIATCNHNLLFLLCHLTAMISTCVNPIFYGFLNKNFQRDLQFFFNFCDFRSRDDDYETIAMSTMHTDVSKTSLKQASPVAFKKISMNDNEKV
Protocol: [^11C]1 (7.1–14 MBq/0.079–0.23 nmol) or [^11C]2 (6.0 MBq/0.16 nmol) was intravenously injected into mice (aged 7–8 weeks, weighing 32–36 g, n = 4–8) 20–30 min after the administration of the solution of 1 (10 mg/kg body weight [b.w.]/0.1 mL water containing 20% Tween 80), elacridar (5 mg/kg b.w./0.1 mL water), or a control fluid (0.1 mL water). Mice were euthanized by cervical dislocation at 30 min post-injection.
Blood samples were collected by heart puncture. Tissues were dissected and weighed. […] The tissue uptake of radioactivity was expressed as the percentage of injected dose detected per gram of sample (%ID/g, tissue radioactivity/g tissue/injected radioactivity × 100).

Radioactivity level, blood ([1]; 5 min after i.v. injection): 0.76±0.07 %ID/g | Radioactivity level, blood ([1]; 15 min after i.v. injection): 0.60±0.06 %ID/g | Radioactivity level, blood ([1]; 30 min after i.v. injection): 0.50±0.04 %ID/g | Radioactivity level, blood ([1]; 60 min after i.v. injection): 0.46±0.06 %ID/g | Radioactivity level, brain ([1]; 5 min after i.v. injection): 0.21±0.01 %ID/g | Radioactivity level, brain ([1]; 15 min after i.v. injection): 0.40±0.06 %ID/g | Radioactivity level, brain ([1]; 30 min after i.v. injection): 0.32±0.05 %ID/g | Radioactivity level, brain ([1]; 60 min after i.v. injection): 0.32±0.05 %ID/g | Radioactivity level, heart ([1]; 5 min after i.v. injection): 1.93±0.23 %ID/g | Radioactivity level, heart ([1]; 15 min after i.v. injection): 1.38±0.04 %ID/g | Radioactivity level, heart ([1]; 30 min after i.v. injection): 1.10±0.05 %ID/g | Radioactivity level, heart ([1]; 60 min after i.v. injection): 0.82±0.07 %ID/g | Radioactivity level, kidney ([1]; 5 min after i.v. injection): 17.41±1.12 %ID/g | Radioactivity level, kidney ([1]; 15 min after i.v. injection): 14.06±1.00 %ID/g | Radioactivity level, kidney ([1]; 30 min after i.v. injection): 12.93±1.01 %ID/g | Radioactivity level, kidney ([1]; 60 min after i.v. injection): 13.37±2.72 %ID/g | Radioactivity level, liver ([1]; 5 min after i.v. injection): 16.09±1.85 %ID/g | Radioactivity level, liver ([1]; 15 min after i.v. injection): 8.82±2.28 %ID/g | Radioactivity level, liver ([1]; 30 min after i.v. injection): 5.05±0.40 %ID/g | Radioactivity level, liver ([1]; 60 min after i.v. injection): 4.09±1.60 %ID/g | Radioactivity level, lung ([1]; 5 min after i.v. injection): 5.08±1.12 %ID/g | Radioactivity level, lung ([1]; 15 min after i.v. injection): 3.43±0.28 %ID/g | Radioactivity level, lung ([1]; 30 min after i.v. injection): 2.72±0.21 %ID/g | Radioactivity level, lung ([1]; 60 min after i.v. injection): 2.13±0.36 %ID/g | Radioactivity level, muscle ([1]; 5 min after i.v. injection): 0.64±0.05 %ID/g | Radioactivity level, muscle ([1]; 15 min after i.v. injection): 0.57±0.08 %ID/g | Radioactivity level, muscle ([1]; 30 min after i.v. injection): 0.52±0.11 %ID/g | Radioactivity level, muscle ([1]; 60 min after i.v. injection): 0.47±0.07 %ID/g | Radioactivity level, pancreas ([1]; 5 min after i.v. injection): 3.40±0.46 %ID/g | Radioactivity level, pancreas ([1]; 15 min after i.v. injection): 3.75±0.35 %ID/g | Radioactivity level, pancreas ([1]; 30 min after i.v. injection): 3.64±0.22 %ID/g | Radioactivity level, pancreas ([1]; 60 min after i.v. injection): 3.70±0.41 %ID/g | Radioactivity level, small intestine ([1]; 5 min after i.v. injection): 6.98±2.37 %ID/g | Radioactivity level, small intestine ([1]; 15 min after i.v. injection): 9.11±1.31 %ID/g | Radioactivity level, small intestine ([1]; 30 min after i.v. injection): 11.02±1.44 %ID/g | Radioactivity level, small intestine ([1]; 60 min after i.v. injection): 12.43±1.54 %ID/g | Radioactivity level, spleen ([1]; 5 min after i.v. injection): 3.18±0.67 %ID/g | Radioactivity level, spleen ([1]; 15 min after i.v. injection): 2.05±0.17 %ID/g | Radioactivity level, spleen ([1]; 30 min after i.v. injection): 1.66±0.04 %ID/g | Radioactivity level, spleen ([1]; 60 min after i.v. injection): 1.41±0.24 %ID/g | Change of radioactivity level in blood by pretreatment with elacridar ([2]; blood): significantly increased | Change of radioactivity level in brain by pretreatment with elacridar ([2]; brain): significantly increased | Change of radioactivity level in heart by pretreatment with elacridar ([2]; heart): significantly increased | Change of radioactivity level in kidney by pretreatment with elacridar ([2]; kidney): significantly decreased | Change of radioactivity level in lung by pretreatment with elacridar ([2]; lung): significantly increased | Change of radioactivity level in muscle by pretreatment with elacridar ([2]; muscle): significantly increased | Change of radioactivity level in blood by pretreatment with 1 ([3]; blood): not changed | Change of radioactivity level in brain by pretreatment with 1 ([3]; brain): not changed | Change of radioactivity level in heart by pretreatment with 1 ([3]; heart): not changed | Change of radioactivity level in kidney by pretreatment with 1 ([3]; kidney): significantly decreased | Change of radioactivity level in lung by pretreatment with 1 ([3]; lung): significantly decreased | Change of radioactivity level in muscle by pretreatment with 1 ([3]; muscle): not changed | Change of radioactivity level in pancreas by pretreatment with 1 ([3]; pancreas): not changed | Change of radioactivity level in spleen by pretreatment with 1 ([3]; spleen): significantly decreased
Compound: COC(=O)C1=C(C)NC(C)=C(C(=O)OC)C1c1cccc(NC(=O)NCCCN2CCC(c3cccc(O[11CH3])c3)CC2)c1 [[^11C]1]
